Where “and” joins values, the source holds several entries; their conditions need not be identical. Equal entries are not always repeated. Where two headings read alike, the source gives them in different places.
Experiments:
CB2 [1] = target: T1, CB2 (Homo sapiens, UniProt P34972); assay: CB2 internalization flow cytometry assay in whole blood of diabetic patients and matched healthy participants; type: cell-based
T1 construct: measured in whole blood samples from nine different healthy human volunteers of working-age; endogenous in cells; host or cells: B-cells (and basophils and other leukocytes) in human whole blood
T1 sequence (P34972 whole entry): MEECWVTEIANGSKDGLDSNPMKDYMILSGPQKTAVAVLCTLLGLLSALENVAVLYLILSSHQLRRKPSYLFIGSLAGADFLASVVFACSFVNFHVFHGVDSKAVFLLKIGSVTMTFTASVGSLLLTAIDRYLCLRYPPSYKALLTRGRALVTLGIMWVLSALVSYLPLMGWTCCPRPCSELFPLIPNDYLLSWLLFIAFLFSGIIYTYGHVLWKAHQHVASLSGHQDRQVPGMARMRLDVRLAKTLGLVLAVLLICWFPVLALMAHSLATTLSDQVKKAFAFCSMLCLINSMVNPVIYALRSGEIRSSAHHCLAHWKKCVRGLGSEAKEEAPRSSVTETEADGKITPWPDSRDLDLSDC
Source text: FIGS. 9A-9E: IC50 value determination for RG7774 in different cell sub-populations in whole blood of diabetic patients and matched healthy participants. Median Fluorescence intensity (MFI)±SD of CB2 surface expression in diabetic patients (open dots, dotted line) and age-matched healthy participants (closed dots, continuous line) after exposure to increasing concentrations of RG7774. Mean MFI for individual data points is based on duplicate measures FIG. 9A: B-cells (CD45^+ CD3^− CD14^− CD19^+). FIG. 9B: Basophils (CD45^+ CD3^− CD14^− CD19^− CD193^+ IgE^+). FIG. 9C: Monocytes (CD45^+ CD3^− CD14^+). FIG. 9D: T-cells (CD45^+ CD3^+ CD14^−). FIG. 9E: NK cells (CD45^+ CD3^− CD14^− CD19^− CD193^− IgE^− CD16^+ CD56^+).
In order to understand, the exposure-response relationship for a drug-induced CB2 internalization on blood cell populations, in particular on B-cells and Basophils, whole blood of nine different diabetic type 1 and 2 patients and eight demographically and age-matched healthy participants were treated with 8 compound concentrations in duplicates to determine the IC50 of RG7774.
Human whole blood from diabetic patients and age-matched healthy participants was incubated with RG7774 for 1 hour at 37° C. followed by incubation with the anti-human CB2 Ab 1/622. The expression of CB2 on the surface of the different blood cell types was analyzed using the lineage marker mix specific for B-cells, Basophils, T-cells, NK-cells and Monocytes. MFI values at 0 μM RG7774 were set as 100% baseline receptor expression for each cell type.

CB2 [2] = target: T2, CB2 (Macaca fascicularis, UniProt G7NVV5); assay: In vitro CB2 internalization flow cytometry assay in Cynomolgus whole blood; type: cell-based, Cynomolgus monkey
T2 sequence (G7NVV5 1-360): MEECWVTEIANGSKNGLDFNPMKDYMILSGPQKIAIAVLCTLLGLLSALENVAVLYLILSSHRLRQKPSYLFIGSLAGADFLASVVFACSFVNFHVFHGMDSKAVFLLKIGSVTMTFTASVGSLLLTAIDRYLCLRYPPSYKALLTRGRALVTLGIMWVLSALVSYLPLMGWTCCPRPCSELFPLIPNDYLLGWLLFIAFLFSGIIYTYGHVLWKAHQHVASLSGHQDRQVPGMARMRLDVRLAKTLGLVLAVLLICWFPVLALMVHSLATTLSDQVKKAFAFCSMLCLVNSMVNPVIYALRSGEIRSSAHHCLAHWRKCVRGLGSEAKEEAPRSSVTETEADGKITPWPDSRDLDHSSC
Description: FIG. 10: In vitro IC50 determination of CB2 internalization on B-cells in whole blood from Cynomolgus monkeys. Cynomolgus whole blood was incubated with RG7774 for 1 hour at 37° C. followed by incubation with the anti-human CB2 antibody 1/622. The expression of CB2 on the surface of B-cells was analyzed using a lineage marker mix specific for B-cells and T-cells. The B/T-cell CB2 MFI ratio was calculated and normalized to baseline. 0 μM was set as 100% baseline receptor expression.
In order to establish whether the CB2 surface assay is cross-reactive in Cynomolgus monkey, blood obtained from five different healthy Cynomolgus monkey has been tested in vitro and the individual IC50 values for RG7774 and maximum reduction of CB2 surface expression in whole blood determined using 8 different compound concentrations in duplicates (FIG. 10, Table 8).

CB2 [3] = target: T2, CB2; assay: In vivo CB2 internalization on B-cells upon oral dosing in Cynomolgus monkeys; parameters: species or system Cynomolgus monkey
Description: FIG. 11: In vivo feasibility for the new CB2 flow cytometry assay to monitor pharmacodynamic response in vitro on B-cells upon oral dosing. Six healthy Cynomolgus monkeys were dosed with three different doses of an oral micro suspension of RG7774 with two animals per dose group. Blood drawn at different time points was incubated with the anti-human CB2 antibody 1/622. The expression of CB2 on the surface of B-cells was analyzed using a lineage marker mix specific for B-cells and T-cells. The B/T-cell CB2 MFI ratio was calculated and normalized to baseline. 0 μM served as 100% baseline receptor expression. For the animal Mina, blood samples could only be taken up to 1 hour after experimental start, since the animal had to be remove of the study due to a rectal prolapse.
FIG. 12: Single dose in vivo study monitoring the pharmacodynomic effect of RG7774 on CB2 expression on B-cells in Cynomolgus upon oral dosing. Three healthy cynomolgus monkeys were dosed with 100 mg/kg of the CB2 agonist RG7774. The blood draw at different time points was followed by the incubation with the anti-human CB2 antibody 1/622. The expression of CB2 on the surface of B-cells was analyzed using a lineage marker mix specific for B-cells and T-cells. The B/T-cell CB2 MFI ratio was calculated and normalized to baseline. 0 μM served as 100% baseline receptor expression. […] Due to a storage effect of the antibody working dilution (5 μg/sample) of the anti-human CB2 Ab 1/622 the 4 and 7 hours' time point have been excluded. The working dilution of this antibody is only stable for 2 hours on ice.
The feasibility of applying the newly developed CB2 flow cytometry assay as an assay to monitor pharmacodynamic response to oral doses of RG7774 was evaluated in three groups of two Cynomolgus monkeys. Upon oral administration of three different single doses of a micro suspension of 0.5, 5 and 100 mg/kg RG7774 respectively, blood samples from all animals were taken at the selected time points: 0 (pre-dose) and 0.25, 0.5, 1, 2, 4, 7 and 24 h post dosing and subjected to the CB2 flow cytometry analysis (FIG. 11).
In this in vivo cyno study three cynomolgus monkeys were orally dosed with 100 mg/kg of RG7774. Blood sampling for TE-assay was performed at selected time points: −96, −24 (both time points not shown), 0 (predose) and 0.25, 0.5, 1, 2, 4, 7, 24, 31, 48 and 72 hours post-dosing (FIG. 12).

[4] = individual donors, DM type 1, value in parentheses = excluded outlier subject
[5] = individual donors, matched healthy participants (HP)

Cn1nnnc1Cn1nnc2c(N3CC[C@H](O)C3)nc(C(C)(C)C)nc21 [RG7774, (S)-1-[5-tert-Butyl-3-(1-methyl-1H-tetrazol-5-ylmethyl)-3H-[1,2,3]triazolo [4,5-d]pyrimidin-7-yl]-pyrrolidin-3-ol]
Emax (CB2 [1]; Basophils, both groups on average, read-out: Emax): ~60% | Emax (CB2 [1]; DM (all) (n = 8), read-out: Mean Emax (Basophils) ± SD per diagnosis): 60.4 ± 9.5% | Emax (CB2 [1]; DM type 1 (n = 3), read-out: Mean Emax (B-cells) ± SD per diagnosis): 60.5 ± 2.8% | Emax (CB2 [1]; DM type 1 (n = 3), read-out: Mean Emax (Basophils) ± SD per diagnosis): 65.9 ± 2.2% | Emax (CB2 [1]; DM type 2 (n = 5), read-out: Mean Emax (B-cells) ± SD per diagnosis): 53.6 ± 14.5% | Emax (CB2 [1]; DM type 2 (n = 5), read-out: Mean Emax (Basophils) ± SD per diagnosis): 57 ± 10.9% | Fold change vs HPs of mean IC50 (CB2 on B-cells) (CB2 [1]; DM vs working-age healthy participants): 1.8x | IC50 (CB2 [1]; Individual IC50 (B-cells), individual donors, DM type 1, value in parentheses = excluded outlier subject): 225 nM and 126 nM and 1060 nM | IC50 (CB2 [1]; Individual IC50 (B-cells), individual donors, DM type 2): 335 nM and 57.9 nM | IC50 (CB2 [1]; Individual IC50 (Basophils), individual donors, DM type 1, value in parentheses = excluded outlier subject): 72 nM and 38.1 nM and 31.7 nM and 154 nM | IC50 (CB2 [1]; Individual IC50 (Basophils), individual donors, DM type 2): 61 nM and 25.7 nM and 54.6 nM and 22.9 nM and 44.4 nM | IC50 (CB2 [1]; Individual IC50 (Basophils), individual donors, matched healthy participants (HP)): 22.1 nM and 23.5 nM and 26.5 nM and 58.1 nM and 55.8 nM and 77.3 nM and 80.1 nM | Emax (CB2 [1]; Matched HPs (n = 8), read-out: Mean Emax (Basophils) ± SD per diagnosis): 59.3 ± 4.5% | Fold change vs HPs of mean IC50 (CB2 on B-cells) (CB2 [1]; Matched Healthy vs working-age healthy participants): 2.6 x | IC50 (CB2 [1]; Mean IC50 (Basophils) ± SD per diagnosis, DM (all) (n = 8)): 43.8 ± 17.5 nM | IC50 (CB2 [1]; Mean IC50 (Basophils) ± SD per diagnosis, DM type 1 (n = 3)): 47.2 ± 21.7 nM | IC50 (CB2 [1]; Mean IC50 (Basophils) ± SD per diagnosis, DM type 2 (n = 5)): 41.7 ± 17 nM | IC50 (CB2 [1]; Mean IC50 (Basophils) ± SD per diagnosis, Matched HPs (n = 8)): 57.2 ± 32.8 nM | fold higher exposure to achieve half maximum internalization of the CB2 on B-cells (CB2 [1]; diabetic patients and matched healthy participants relative to working-age healthy participants): 2-3 fold | Individual Emax (B-cells) (CB2 [1]; [4]): 62.79% and (59.35) % | Individual Emax (Basophils) (CB2 [1]; [4]): 68.43% and 64.41% and (57.09) % | Emax (CB2 [1]; individual donors, DM type 1, value in parentheses = excluded outlier subject, read-out: Individual Emax (B-cells)): 62% | Emax (CB2 [1]; individual donors, DM type 1, value in parentheses = excluded outlier subject, read-out: Individual Emax (Basophils)): 64.9% | Individual Emax (B-cells) (CB2 [1]; individual donors, DM type 2): 34.08% and 74.13% and 50.35% and 58.24% and 51.25% | Individual Emax (Basophils) (CB2 [1]; individual donors, DM type 2): 41.64% and 62.91% and 54.19% and 70.94% | Individual Emax (B-cells) (CB2 [1]; [5]): 52.88% and 51.18% and 52.64% and 70.18% and 52.40% and 60.22% and 49.16% and 57.11% | Individual Emax (Basophils) (CB2 [1]; [5]): 64.04% and 57.73% and 54% and 58.78% and 62.7% | Emax (CB2 [1]; individual donors, matched healthy participants (HP), read-out: Individual Emax (Basophils)): 66.1% | reduction of the CB2 expression (CB2 [2]; T-cells, Monocytes and Granulocytes (data not shown)): has not been observed | responder status in vitro (CB2 [2]; five Cynomolgus monkeys): One Cynomolgus out of five is a non-responder | onset of pharmacodynamic effect on CB2 surface expression on B-cells (CB2 [3]; 100 mg/kg oral): ≤ 15 min | duration of reduction of CB2 expression on B-cells (CB2 [3]; single oral doses 0.5, 5 and 100 mg/kg): around 24 hours | reduction relative to individual baseline CB2 expression on B-cells (CB2 [3]; single oral doses 0.5, 5 and 100 mg/kg micro suspension): dose dependent reduction | responder status in vivo (CB2 [3]; three cynomolgus monkeys, 100 mg/kg oral): One out of three cynos is a non-responder

From US20260029420A1, “ANTI-CB2 ANTIBODIES AND THEIR USE IN A FLOW CYTOMETRY ASSAY TO MEASURE CELL SURFACE CB2 EXPRESSION” (Hoffmann-La Roche Inc., priority 2022, published 2026)
